Test results as given in patent publication US8008351B2, “Methods for prophylaxis or treatment of conditions associated with cortical spreading depression” (UCB Pharma GmbH, priority 2004, dated 2011).
“Also recorded” adds a separate entry of the source.

Key:
[1] = tested on: rat model of migraine (Cortical Spreading Depression, CSD); assay: Cortical spreading depression (CSD) rat model of migraine: number of KCl-induced direct current (DC) potentials; format: in vivo, rat (Wistar); conditions: for Number of DC: n = 10, mean ± SD
Description: (§1) All animal experiments were carried out according to the National Institute of Health (NIH) guidelines for the care and use of laboratory animals, and approved by the Ethical Committee of the National Laboratory Animal Center, Kuopio, Finland. Altogether 77 adult male Wistar rats, purchased from Harlan, Netherlands, and weighing 250-350 g were used for the experiment. Animals were housed at a standard temperature (22±1° C.) and in a light-controlled environment (lights on from 7 am to 9 pm) with ad libitum access to food and water. Animals were grouped as follows: • 15 rats treated with SPM 927 (3 mg/kg; i.p.) 30 min before the CSD episode • 15 rats treated with SPM 927 (10 mg/kg; i.p.) 30 min before the CSD episode • 15 rats treated with SPM 927 (30 mg/kg; i.p.) 30 min before the CSD episode • 15 rats treated with Valproic acid (250 mg/kg; i.p.) 30 min before the CSD episode • 15 rats treated with Vehicle (2 ml/kg; i.p.) 30 min before CSD episode • 2 sham rats without CSD episode (topical NaCl application) and without any treatment Subgroups: • 10 rats to DC-potential, CBF, and blood pH, pO2, pCO2, glucose and mean arterial pressure analysis (rats killed at 30 min after CSD, brains fresh-frozen) • 5 rats to jugular vein cannulation (CGRP sampling) and dural as well as cortical CGRP immunocytochemistry (rats killed at 15 min after CSD)
Rats were anaethetized with Equithesin (3 ml/kg) and placed in a stereotactic frame. The rectal temperature was maintained at 37.0±1.0° C. with a homeothermic blanket system. A polyethylene catheter was inserted into the femoral artery in order to monitor arterial blood pressure and take blood samples for arterial pH, pO2, pCO2 and glucose. The arterial blood gases were measured with i-STAT portable clinical analyzer (I-STAT), arterial blood pressure monitored with Cardiocap II blood pressure analyzer (datex-Ohmeda, Helsinki, Finland) and blood glucose with standard glucose meter (Arkray, Japan). The measurements were taken 10 min before as well as 5 min after the CSD episode. The skin was opened by a medical incision and retracted laterally. Three skull burr holes were drilled in a row unilaterally. One was placed over the frontal cortex, the second frontoparietally and the third one parietally (FIG. 1). A laser-Doppler flow probe (Oxyflow, Oxford Optronics, UK) to monitor CBF and a non-invasive tungsten electrode for measuring direct current (DC) potential shifts were placed in the frontal and frontoparietal burr holes on the intact dura, respectively. The laser-Doppler flow probe was positioned in an area free of large pial and dural vessels to minimize a large-vessel contribution to the signal. For the DC-potential measurement, a reference electrode was fixed in the neck. CSDs were elicited unilaterally by placing a KCl-soaked (3.0 M) piece of filter paper on the parietal opening for 5 min. The KCl exposure was terminated by flushing the opening with saline and placing a dry piece of filter paper on the opening. The CBF and DC-potentials were monitored continuously starting from 5 minutes before CSD and continuing up to 30 min after the KCl exposure.
All values were calculated as mean±standard deviation (SD) and differences were considered to be statistically significant as the P<0.05 level. Statistical analysis was performed using StatsDirect statistical software. Differences among means were analyzed by using one-way analysis of variance (ANOVA). […]

[2] = tested on: Calcitonin gene-related peptide (CGRP); assay: CSD-induced CGRP release in jugular vein blood (CGRP EIA); format: in vivo, rat (Wistar); conditions: for CGRP release expressed as percent of baseline levels, 10-15 min: 10-15 min after induction of CSD; for CGRP release expressed as percent of baseline levels, 10-15 min / CGRP release expressed as percent of baseline levels, 20-25 min / CGRP release expressed as percent of baseline levels, Baseline: n = 5; for CGRP release expressed as percent of baseline levels, 20-25 min: 20-25 min after induction of CSD; for CGRP release expressed as percent of baseline levels, Baseline: baseline (before CSD)
Description: as §1
Following anesthesia (before CSD), a catheter was placed into the right jugular vein. 0.250 ml of blood was taken through the catheter for baseline measurement. For time course experiments further samples were taken at 10-15 and 20-25 min following initiation of CSD. Samples were stored in prepared Eppendorf tubes containing the protease inhibitors aprotinin (1000 KU, Bayer, Germany) and Pefabloc™ (1 mg/ml, Boehringer Mannheim, Germany), immediately cold centrifuged and stored at −80° C. The samples were acidified with trifluoroacetic acid and centrifuged at 6000 g for 20 min. The supernatant was extracted with Sep-Pak C-18 cartridges (Millipore, Waters, UK). Eluates were concentrated (dried) and dissolved in EIA buffer. CGRP concentrations were detected using a commercial CGRP EIA kit (S-3006, Bachem Distribution GmbH) according to the manufacturer's instructions.
All values were calculated as mean±standard deviation (SD) and differences were considered to be statistically significant as the P<0.05 level. Statistical analysis was performed using StatsDirect statistical software. Differences among means were analyzed by using one-way analysis of variance (ANOVA). Dunnet's post-hoc test was applied for multiple comparisons with a control group.

[3] = rat model of migraine, pre-treatment, 3 doses

Row | SMILES | Number of DC ([1]; 3 mg/kg i.p. 30 min before CSD episode) | Number of DC ([1]; 10 mg/kg i.p. 30 min before CSD episode) | Number of DC ([1]; 30 mg/kg i.p. 30 min before CSD episode) | Effect on CSD / number of CSD-induced DC-potentials (in words) [1, 3] | CGRP release expressed as percent of baseline levels, 10-15 min ([2]; 3 mg/kg i.p.) [%] | CGRP release expressed as percent of baseline levels, 20-25 min ([2]; 3 mg/kg i.p.) [%] | CGRP release expressed as percent of baseline levels, Baseline ([2]; 3 mg/kg i.p.) [%] | CGRP release expressed as percent of baseline levels, 10-15 min ([2]; 10 mg/kg i.p.) [%] | CGRP release expressed as percent of baseline levels, 20-25 min ([2]; 10 mg/kg i.p.) [%] | CGRP release expressed as percent of baseline levels, Baseline ([2]; 10 mg/kg i.p.) [%] | CGRP release expressed as percent of baseline levels, 10-15 min ([2]; 30 mg/kg i.p.) [%] | CGRP release expressed as percent of baseline levels, 20-25 min ([2]; 30 mg/kg i.p.) [%] | CGRP release expressed as percent of baseline levels, Baseline ([2]; 30 mg/kg i.p.) [%] | Effect on CSD-induced CGRP release / CGRP levels in blood (in words) [2, 3] | Number of DC ([1]; 250 mg/kg i.p. 30 min before CSD episode) | CGRP release expressed as percent of baseline levels, 10-15 min ([2]; 250 mg/kg i.p.) [%] | CGRP release expressed as percent of baseline levels, 20-25 min ([2]; 250 mg/kg i.p.) [%] | CGRP release expressed as percent of baseline levels, Baseline ([2]; 250 mg/kg i.p.) [%]
1 | COC[C@@H](NC(C)=O)C(=O)NCc1ccccc1 [SPM 927, (R)-2-acetamide-N-benzyl-3-methoxypropionamide] | 4.2 ± 0.4 | 3.3 ± 0.4 | 3.5 ± 0.6 | reduces; also recorded: significant suppression | 126 ± 45 | 35 ± 7 | 100 ± 0 | 114 ± 27 | 66 ± 31 | 100 ± 0 | 92 ± 53 | 71 ± 12 | 100 ± 0 | reduces; also recorded: significant suppression |  |  |  | 
2 | CCCC(CCC)C(=O)O [Valproic acid, reference compound] |  |  |  |  |  |  |  |  |  |  |  |  |  |  | 3.7 ± 0.3 | 56 ± 8 | 71 ± 15 | 100 ± 0
